# Patent US20160158189A1, “SENSITIZATION OF CANCER CELLS TO APOPTOSIS INDUCTION BY FLAVAGLINES AND 5-HYDROXY-FLAVONES” (DEUTSCHES KREBSFORSCHUNGSZENTRUM, priority 2013, published 2016)
# Key:
# human ALL RS4;11 = settings: 100 mg/kg/day; cited from earlier work
# [1] = tested on: cervix adenocarcinoma cell line HeLa; assay: Apoptotic cell death by DNA fragmentation, HeLa; format: cell-based, human; settings: 1 μM ABT-263, 48 h
# Method: (§1) The human malignant cell lines used in this study are the T cell leukemic cell lines CEM, Molt-4 and Jurkat (J16), the HL cell line KM-H2, the cervix adenocarcinoma cell line HeLa, the melanoma cell line A375, the hepatocellular carcinoma cell line HepG2, the pancreatic carcinoma cell line MiaPaca, the breast cancer cell line MCF-7, the prostatic cancer cell line PC3 and the colon carcinoma cell line HCT116. All cells were cultured in RPMI 1640 or DMEM medium (GIBCO laboratories, Grand Island, USA), supplemented with 10% FCS, 100 Units/ml penicillin (GIBCO), 100 μg/m1 streptomycin (GIBCO) and 2 mM L-glutamine (GIBCO) at 37° C. and 5%. Wogonin (BIOTREND Chemicals AG, Wangen, Switzerland), apigenin, chrysin, luteolin and baicalein (Sigma, St. Louis, USA) were solved in dimethyl sulfoxide (DMSO; Roth, Karlsruhe, Germany) at a stock concentration of 50 mM. Cells were treated with different concentrations of different flavones or ABT-263 (Selleck Chemicals, Houston, USA) for 24 to 48 h. Apoptotic cell death was examined by analysis of DNA fragmentation as previously described 23 (Fas et al.,2006, Blood 108: 3700-6). Results are presented as % specific DNA fragmentation using the formula: (percentage of experimental apoptosis-percentage of spontaneous apoptosis)/(100-percentage of spontaneous apoptosis)×100.
# melanoma cell line A375 = assay: Apoptotic cell death by DNA fragmentation, A375; format: cell-based, human; settings: 1 μM ABT-263, 48 h
# Method: as §1
# [2] = tested on: colon carcinoma cell line HCT116; assay: Apoptotic cell death by DNA fragmentation, HCT116; format: cell-based, human; settings: 1 μM ABT-263, 48 h
# Method: as §1
# Mcl-1 = assay: Western blot analysis of Mcl-1 expression; format: cell-based, human; settings: Jurkat and CEM with acquired ABT-263 resistance
# Description: (§2) For each sample, 1×10^7 cells were lysed as previously described. 23 Equal amounts of protein were separated on 5-13% SDS-PAGE depending on the molecular sizes of the proteins and blotted onto a nitrocellulose membrane (Amersham Biosciences, Little Chalfon, UK) as previously described. 23 The following antibodies were used: Bad, Bax, Bcl-xL, Bcl-w, XIAP from Cell Signaling Technology, Danvers, USA; Bcl-2 (sc-509) and Mcl-1 (sc-819) from Santa Cruz Biotechnology, Heidelberg, Germany; Tubulin and actin from Sigma, Saint Louis, USA.
# [3] = tested on: ABT-263-resistant Jurkat (Jurkat-R); assay: Apoptotic cell death by DNA fragmentation, ABT-263-resistant Jurkat; format: cell-based, human; settings: Jurkat treated with increasing ABT-263 up to 10 μM, 3 months
# Method: (§3) Wogonin (BIOTREND Chemicals AG, Wangen, Switzerland), apigenin, chrysin, luteolin and baicalein (Sigma, St. Louis, USA) were solved in dimethyl sulfoxide (DMSO; Roth, Karlsruhe, Germany) at a stock concentration of 50 mM. Cells were treated with different concentrations of different flavones or ABT-263 (Selleck Chemicals, Houston, USA) for 24 to 48 h. Apoptotic cell death was examined by analysis of DNA fragmentation as previously described 23 (Fas et al.,2006, Blood 108: 3700-6). Results are presented as % specific DNA fragmentation using the formula: (percentage of experimental apoptosis-percentage of spontaneous apoptosis)/(100-percentage of spontaneous apoptosis)×100.
# [4] = tested on: hepatocellular carcinoma cell line HepG2; assay: Apoptotic cell death by DNA fragmentation, HepG2; format: cell-based, human; settings: HepG3 (so in the source); 1 μM ABT-263, 48 h
# Method: as §1
# Colo-357 cells = assay: Apoptotic cell death by DNA fragmentation, Colo-357; format: cell-based; settings: 1 μM ABT-263, 48 h
# Method: as §3
# [5] = tested on: pancreatic carcinoma cell line MiaPaca; assay: Apoptotic cell death by DNA fragmentation, MiaPaca; format: cell-based, human; settings: 1 μM ABT-263, 48 h
# Method: as §1
# [6] = tested on: proliferating normal peripheral blood T cells; assay: Apoptotic cell death by DNA fragmentation, proliferating normal T cells; format: cell-based; settings: human
# Method: Normal T cells were isolated from peripheral blood of healthy donors and activated to proliferate as described in the Materials and Methods. The proliferating T cells were treated with different concentrations of ABT-263 in the absence or presence of wogonin as indicated. Apoptotic cell death was determined by DNA fragmentation. Results are presented as pooled data from four independent donors. (B) Proliferating normal T cells express higher levels of Mcl-1 and Bcl-2 than leukemic Jurkat and Molt-4 T cells. Total cell lysates of activated T cells from three healthy donors were compared with leukemic cells for the expression levels of Mcl-1, Bcl-2, Bcl-xL and Bcl-w. CDK6 is known to be over-expressed in many tumor cells and was used as a marker for malignant cells. Representative blots from two independent experiments are shown. […] Human platelets in 10% FCS were treated with different concentrations of ABT-263 in the absence or presence of wogonin as indicated. After 1 h treatment, apoptotic cell death was determine by staining with annexin V/FITC. Results are average of two independent assays.
# Human peripheral blood T cells were prepared as described previously 23 and were more than 90% CD3 positive. For generation of proliferating T cells, freshly isolated T cells were cultured at 2×10^6 cells/ml and were activated with […] PHA overnight. Activated T cells were then washed three times and cultured for additional 5 days in the presence of 25 U/ml IL-2. Platelets were prepared as described in Vogler et al., 2011, Blood 117: 7145-54.
# as §3, with “Results are presented as % specific DNA fragmentation using the formula: (percentage of experimental apoptosis-percentage of spontaneous apoptosis)/(100-percentage of spontaneous apoptosis)×100.” left out
# [7] = tested on: prostatic cancer cell line PC3; assay: Apoptotic cell death by DNA fragmentation, PC3; format: cell-based, human; settings: 1 μM ABT-263, 48 h
# Method: as §1
# CEM tumors = assay: CEM xenograft in immunodeficient mice; format: in vivo; settings: Rag2-/-/Il2rg-/- mice, s.c. CEM; ABT-263 50 mg/kg p.o. and/or wogonin 50 mg/kg i.p.
# Method: Immunodeficient mice (Rag2−/−/II2rg−/−) were implanted subcutaneously in the dorsal flank region with CEM (5×10^7 cells). After the tumors reached to approximate 35 mm3, tumor size matched mice were treated with ABT-263 (50 mg/kg, once in each third or fourth day) in the presence or absence of 50 mg/kg wogonin. ABT-263 was formulated according to the protocol previously described 9 and administered p.o. Wogonin dissolved in DMSO was diluted in sunflower oil and administered i.p. For combination studies, ABT-263 was given 2 h before wogonin. The control group was treated in an analogous manner with the vehicle. The tumor size was measured with a micrometer caliper two to three times weekly and the tumor volume (V) was calculated by the formula V=(width2×length)/2. All protocols using and maintaining animals were approved by the German Animal Protection Authority (Office Regierungsprasidium Karlsruhe) in Karlsruhe.
# [8] = tested on: breast cancer cell line MCF-7; assay: Apoptotic cell death by DNA fragmentation, MCF-7; format: cell-based, human; settings: 1 μM ABT-263, 48 h
# Method: as §1
# [9] = tested on: ABT-263-resistant CEM (CEM-R); assay: Apoptotic cell death by DNA fragmentation, ABT-263-resistant CEM; format: cell-based, human; settings: CEM treated with increasing ABT-263 up to 1 μM, 2 months
# Method: as §3
# [10] = tested on: Hodgkin lymphoma (HL) cell line KM-H2; assay: Apoptotic cell death by DNA fragmentation, KM-H2; format: cell-based, human; settings: 1 μM ABT-263, 48 h
# Method: as §1
# [11] = tested on: caspase-8, caspase-3, PARP; assay: Western blot of caspases and PARP; format: cell-based, human; settings: Jurkat (J16); combination with ABT-263, 24 h
# Description: as §2
# (§4) To investigate whether rocaglamide could enhance the toxicity of ABT-263 on leukemic cells, leukemic T cell line Jurkat and the HTLV-1-associated ATL cell line MT-2 were treated with indicated amounts of ABT-263 in the absence or presence of different concentration of rocaglamide for 48 h. Apoptotic cell death was determined by DNA fragmentation.
# Jurkat (J16) cells = assay: Apoptotic cell death by DNA fragmentation, Jurkat; format: cell-based, human; settings: Jurkat; ABT-263 with different concentrations of rocaglamide, 48 h
# Method: as §1
# [12] = tested on: HTLV-1-associated ATL cell line MT-2; assay: Apoptotic cell death by DNA fragmentation, MT-2; format: cell-based, human; settings: ABT-263 with different concentrations of rocaglamide, 48 h
# Method: as §3, §4
Compound,tumor response (human ALL RS4;11),cell death [1],cell death (melanoma cell line A375),cell death [2],Mcl-1 expression after long-term ABT-263 exposure (Mcl-1),sensitivity to ABT-263 after long-term exposure [3],cell death [4],cell death (Colo-357 cells),cell death [5],sensitivity of proliferating normal T cells to ABT-263 [6],cell death [7],tumor growth / tumor response (CEM tumors),cell death [8],sensitivity to ABT-263 after long-term exposure [9],cell death [10],"activities of caspase-8, caspase-3 and PARP cleavage [11]",sensitization of ABT-263-induced apoptosis (Jurkat (J16) cells),sensitization of ABT-263-induced apoptosis [12]
"CC1(C)CCC(c2ccc(Cl)cc2)=C(CN2CCN(c3ccc(C(=O)NS(=O)(=O)c4ccc(N[C@H](CCN5CCOCC5)CSc5ccccc5)c(S(=O)(=O)C(F)(F)F)c4)cc3)CC2)C1 [ABT-263, (R)-4-(4-((4′-chloro-4,4-dimethyl-3,4,5,6-tetrahydro-[1,1′-biphenyl]-2-yl)methyl)piperazin-1-yl)--N-((4-((4-morpholino-1-(phenylthio)butan-2-yl)amino)-3-((trifluoromethyl)sulfonyl)phenyl)sulfonyl)benzamide]",complete tumor response rate,less than 5%,10-20%,10-20%,elevated Mcl-1 expression,resistant to ABT-263,10-20%,less than 5%,less than 5%,higher resistance to ABT-263 compared to leukemic cells,less than 5%,no significant inhibition of tumor growth,less than 5%,resistant to ABT-263,less than 5%,,,
"COc1ccc([C@@]23Oc4cc(OC)cc(OC)c4[C@]2(O)[C@H](O)[C@H](C(=O)N(C)C)[C@H]3c2ccccc2)cc1 [rocaglamide, (1R,2R,3S,3aR,8bS)-1,8b-dihydroxy-6,8-dimethoxy-3a-(4-methoxyphenyl)—N,N-dimethyl-3-phenyl-2,3-dihydro-1H-cyclopenta[b][1]benzofuran-2-carboxamide]",,,,,,,,,,,,,,,,"Significant enhancement of activities of caspase-8, caspase-3 and increase in PARP cleavage",sensitized by rocaglamide in both leukemic cell lines in a dose-dependent manner,sensitized by rocaglamide in both leukemic cell lines in a dose-dependent manner
